Measurements from paper PMC12549899 (Nature Communications, 2025).
Values joined by “and” are separate entries in the source; they are usually repeats but may differ in a detail not shown here. Equal values may be shown once.

Molecular target: T1, DrOTOP1 M133W (Danio rerio, UniProt Q7ZWK8, M133W)
T1 construct: A previously generated codon-optimized full-length DrOTOP1[8]; (UniProt: Q7ZWK8) construct; expressed in transfected cells; host or cells: HEK-293 (CRL-1573, ATCC)
T1 sequence (Q7ZWK8 1-586 M133W): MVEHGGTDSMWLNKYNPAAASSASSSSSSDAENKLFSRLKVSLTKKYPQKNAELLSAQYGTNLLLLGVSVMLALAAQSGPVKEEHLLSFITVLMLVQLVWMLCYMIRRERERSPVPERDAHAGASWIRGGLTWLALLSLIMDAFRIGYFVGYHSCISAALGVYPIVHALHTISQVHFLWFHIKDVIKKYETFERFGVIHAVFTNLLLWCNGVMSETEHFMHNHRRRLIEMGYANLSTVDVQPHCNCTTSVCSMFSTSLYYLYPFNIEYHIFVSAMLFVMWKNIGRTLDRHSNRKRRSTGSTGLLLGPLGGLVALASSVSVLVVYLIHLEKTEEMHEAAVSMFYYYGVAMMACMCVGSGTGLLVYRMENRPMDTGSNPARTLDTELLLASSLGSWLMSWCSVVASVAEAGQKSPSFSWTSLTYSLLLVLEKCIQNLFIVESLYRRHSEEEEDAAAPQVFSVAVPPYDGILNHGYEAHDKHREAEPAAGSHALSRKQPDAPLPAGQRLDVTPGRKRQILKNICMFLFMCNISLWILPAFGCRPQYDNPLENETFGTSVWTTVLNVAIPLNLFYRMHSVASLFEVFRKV
Test: Whole-cell patch-clamp, inhibition of acid-evoked currents, DrOTOP1 M133W
Format: cell-based, zebrafish (Danio rerio)
From the text: To functionally test the significance of the two binding sites identified by cryo-EM, we generated point mutations of DrOTOP1 using the binding poses and conformational changes observed in DrOTOP1_C2.2 to guide our mutations. As per the binding pose that best fits our cryo-EM density, C2.2 forms the following interactions in the outer site: hydrophobic packing against many non-polar residues W126, G130, M133, L134, F271, F570, and M573, and π-stacking with W532 (Fig. 5A). In addition, C2.2 could potentially form H-bonds with E267, if the sidechain is protonated or a water bridge is present, and with H574 if it moves closer (Fig. 5A). Likewise, C2.36 presents a heterocyclic nitrogen that can potentially form a H-bond with E267, similarly, provided a protonation or water bridge is present (Fig. 5B). In addition, C2.36 forms a T-shaped π-stacking interaction with H574, whose sidechain has rotated 90 degrees (compared to DrOTOP1_apo), presumably to accommodate the interaction (Fig. 5B). Considering other inhibitors discovered from the second round of screening, many contain functional groups like the carbonyl groups of Group 1 molecules and the heterocyclic nitrogen atoms of Group 2 molecules (Supplementary Fig. 3E), that can potentially form similar H-bonds with E267 as C2.2 and C2.36, assuming the binding modes are similar. In the central site, C2.2 binds with the following interactions: hydrophobic packing with residues V201, F271, A274, V278, and A388, π-stacking with F277, and H-bonding with E384 (Fig. 5C).
Each non-aromatic residue was mutated to tryptophan, which was expected to cause steric occlusion. […]
Whole-cell patch-clamp recording was performed as previously described[6],[22],[25]. Recordings were made with an Axopatch 200B amplifier, digitized with a Digidata 1322a 16-bit data acquisition system, acquired with pClamp 8.2 and analyzed with Clampfit 10 (Molecular Devices). […]

SMILES | Inhibition of currents (10 µM, single cells or mean, mean) [%] | Inhibition of currents (10 µM, single cells or mean, single cells) | Inhibition of currents (100 µM, single cells)
C=C(C)COc1ccccc1NC(=O)c1nc[nH]c1C [C2.2] | 71.39 | 74.2591% and 52.599% and 79.1509% and 79.3522% and 71.5803% | –
O=C(/C(=N\O)c1ccccc1)c1ccccc1 [C11, benzil monoxime] | – | – | 51.1084% and 50.3496% and 47.6418% and 59.4138% and 72.1088%
